Blank lines part the entries; values can stand above or below the substance they belong to.
Legend:
[1] = hydrogel of similar PA; cited from earlier work
Excerpt: This is consistent with previous findings that increasing the proportion of valines in the β-sheet forming region of a PA results in an increase in gel stiffness. With PAs such as […]16, the β-sheet signal in the CD spectrum is red-shifted by a magnitude that inversely correlates with gel stiffness, and this has been attributed to the extent of twisting of the sheets, i.e., stiffer gels involve stronger peptide interactions with the least t ...

[2] = Solubility in water and organic solvents
[3] = Gelation by inversion test; details: for minimum gel concentration (MGC): inversion test
[4] = Rheology of the gels (strain sweep, frequency sweep, thixotropic test); assay type: physicochemical
Method: […]-C8 therefore forms a very stiff but brittle gel.
An aliquot (550 μL) of this solution was then cast onto an Anton Paar MCR 302 rheometer (parallel plate geometry, 25 mm diameter, 1 mm gap) and left to gel over the course of 4 h. A solvent trap and Peltier hood was used to prevent any evaporation during gelation. Frequency sweeps were performed from 0.1–10 Hz, at a constant strain of 0.2% and three repeats performed on separate samples. Strain sweeps were performed from 0.1–100% at a constant frequency of 1 Hz.

Substance: EEEAAAVVV-C16 [previously reported hydrogel-forming peptide amphiphile studied by the Stupp and Nguyen groups]
gel stiffness [1]: < 10^4 Pa

solubility in acetonitrile/water mixtures ([2]; mixtures of acetonitrile and water, VVVGHVVV-C8 with sonication): soluble
solubility in water ([2]; water, regardless of pH, temperature and sonication): peculiarly soluble in water
gelation of acetonitrile/water solutions ([3]; acetonitrile/water mixtures): did not gelate
Substance: N- Val3-His-Gly-Val3

solubility in DMF ([2]; DMF): dissolved
solubility in acetonitrile ([2]; acetonitrile): insoluble
solubility in dichloromethane ([2]; dichloromethane): dissolved
solubility in dimethyl sulfoxide ([2]; dimethyl sulfoxide): dissolved
solubility in ethyl acetate ([2]; ethyl acetate, heating to reflux temperatures and sonicating for up to one hour): did not dissolve
gel stiffness (approximated by G') ([4]; 0.20 wt.% gel in 50% acetonitrile/water, frequency sweep 0.1-10 Hz at constant 0.2% strain, three repeats on separate samples): 1.5 × 10^5 Pa
cross-over point under oscillatory strain ([4]; DMF organogel): no cross-over point observed
strain at which mechanical properties deviate from the linear viscoelastic region ([4]; gel from 0.20 wt.% solution in 50% acetonitrile/water, strain sweep 0.1-100% at constant frequency of 1 Hz): less than 1 % strain
cross-over point from gel to liquid (G' = G'') ([4]; gel from 0.20 wt.% solution in 50% acetonitrile/water, strain sweep at constant frequency of 1 Hz): 3 % strain
minimum gel concentration (MGC) ([3]; DMF): 0.06 wt.%
minimum gel concentration (MGC) ([3]; acetone): 0.06 wt.%
gel formation in chloroform ([3]; chloroform solution): did not form gels
gel formation in dichloromethane ([3]; dichloromethane solution): did not form gels
gel formation in dimethyl sulfoxide ([3]; dimethyl sulfoxide solution): did not form gels
gel formation in ethanol ([3]; ethanol solution): did not form gels
gel formation in isopropanol ([3]; isopropanol solution): did not form gels
gel formation in methanol ([3]; methanol solution): did not form gels
gel formation in toluene ([3]; toluene solution): did not form gels
Substance: N-Octanoic acid-Val3-His-Gly-Val3
